{"source": "patent US6303596A", "about": "“Use of taurolidine for treatment of leukemias” (priority 2000, dated 2001)", "key": {"K562 cells": {"tested_on": "K562 cells", "assay": "trypan blue exclusion, K562", "assay_type": "cell-based, human", "conditions": "K562, 25 μg/ml taurolidine", "protocol": "FIGS. 6A and 6B depict cell viability and growth rates for K562 cell line following taurolidine treatment, in terms of % trypan blue negative cells and % cell number, respectively. Cells were treated with various concentrations of taurolidine for 4 hours in AIM-V+0.01% BCS. After aliquots were collected for LDH assay, the remainder of the culture was rinsed in HBSS and resuspended in RPMI+10% BCS without taurolidine. Counts of trypan blue-negative cells (FIG. 6A), and total cell number (FIG. 6B), were recorded daily thereafter (with the measurement at Day 1 being made immediately after the 4 hour taurolidine treatment). […] Doubling times were determined under each condition, and expressed as a percentage of the rate of doubling of untreated cells. […]\nIn these experiments, integrity of cell membranes following taurolidine treatment was assessed by exclusion of trypan blue and by measuring the release of LDH in MM6, K-562, HL-60, and REH cells. […] A parallel aliquot of cells was lysed by three cycles of freeze/thaw and the quantity of LDH released was taken to be 100%. […]\nHL-60 cells treated with 50 μl taurolidine. In these samples, LDH present in the culture medium was 8.3±2.3% of that released by completely lysed cells, compared with 2.3±0.8% measured in control cultures. […]"}, "epithelial cells": {"tested_on": "epithelial cells", "conditions": "5 mg/ml taurolidine, two hours; cited from earlier work"}, "[1]": {"tested_on": "leukemia-derived cell lines", "assay": "trypan blue exclusion, cell lines taken together", "assay_type": "cell-based, human", "protocol": "In these experiments, integrity of cell membranes following taurolidine treatment was assessed by exclusion of trypan blue and by measuring the release of LDH in MM6, K-562, HL-60, and REH cells. Since BCS contains significant amounts of LDH, these experiments were conducted on cells cultured in AIM-V+0.01% BCS. Four hour treatment of cells was conducted in AIM-V containing 0.01% BCS in order to allow subsequent LDH assay without interference from BCS (which occurs in when normal culture medium, containing 10% BCS, is used). Thus, MM6 cells (5×10^5 cells/ml) were treated with taurolidine for four hours in AIM-V+0.01% BCS, after which an aliquot of the cell suspension was removed for measurement of LDH release. A parallel aliquot of cells was lysed by three cycles of freeze/thaw and the quantity of LDH released was taken to be 100%. Remaining cells were rinsed in HBSS and resuspended in growth medium for measurement of growth rates.\nHL-60 cells treated with 50 μl taurolidine. In these samples, LDH present in the culture medium was 8.3±2.3% of that released by completely lysed cells, compared with 2.3±0.8% measured in control cultures. […] After 4 hour treatment, cells were rinsed and returned to growth medium and monitored for viability and growth over the following 3 days. […]"}, "TNFα": {"tested_on": "TNFα", "assay": "LPS-induced TNFα expression/secretion by MM6 cells, ELISA", "assay_type": "cell-based, human", "conditions": "4 h", "protocol": "FIG. 3A and FIG. 3B are graphs depicting taurolidine inhibition of LPS-induced alpha […] (TNFα) expression by monocytic cells as determined by assay procedures. FIG. 3A represents MM6 cells; FIG. 3B represents PBMC. The cells were induced with LPS (hatched bars: 100 ng/ml LPS in RPMI+10% BCS; solid bars: 10 ng/ml in AIM-V+0.01% BCS) in the presence of varying concentrations of taurolidine. After four hours, cell supernatants were collected for TNFα ELISA. Data are expressed as percent of TNFα levels measured in cell cultures treated with LPS alone (no taurolidine or vehicle). Experiments were performed with duplicate samples and were repeated at least three times. Values shown in FIG. 3A are from a representative experiment. Values shown in FIG. 3B are mean±SEM of three experiments.\nAll cells were cultured in a 5% CO2 atmosphere at 37° C. MM6 cells were grown in RPMI supplemented with 10% BCS, 2 mM L-glutamine, and 50 μg/ml gentamicin (RPMI+10% BCS). In some experiments, MM6 cells were rinsed once with HBSS without Ca^++ or Mg^++ and once with AIM-V before finally being resuspended in AIM-V supplemented with 0.01% BCS (AIM-V+0.01% BCS). […] AIM-V was supplemented with a low amount of BCS (0.01%) in order to provide a source of LPS-binding protein, which enhances the response of monocytic cells to LPS. Ulevitch, R. J. and Tobias, P. S., \"Recognition of endotoxin by cells leading to transmembrne signaling,\" Curr Opin Immunol 6:125 (1994). HL-60, REH, and Jurkat were cultured in RPMI supplemented with 10% heat inactivated fetal bovine serum (FBS), 2 mM L-glutamine, and 50 μg/ml gentamicin. ECV304 were cultured in M199 supplemented with 10% FBS, mM L-glutamine, and 50 μg/ml gentamicin. GM5387 was cultured in MEM supplemented with 20% FBS, 2 mM L-glutamine, and 50 μg/ml gentamicin.\nFor induction of TF or TNFα expression, MM6 cells or PBMC were cultured either in RPMI supplemented with 10% BCS or in AIM-V+0.01% BCS, and stimulated by adding LPS to final concentrations of 10 to 100 ng/ml. […]"}}}
{"smiles": "O=S1(=O)CCN(CN2CCS(=O)(=O)NC2)CN1", "note": "[taurolidine, 4,4'-methylenebis(perhydro-1,2,4-thiadiazin 1,1-dioxide)]", "values": [{"measurement": "trypan blue staining after treatment", "setting": "K562 cells", "value": "did not show an increase in trypan blue staining"}, {"measurement": "toxic effects on epithelial cells", "setting": "epithelial cells", "value": "No toxic effects"}, {"measurement": "trypan blue assay on Day 1", "setting": "[1]; all samples, 25 to 100 μg/ml taurolidine, after 4 h treatment", "value": "equivalent to control"}, {"measurement": "progressive permeability to trypan blue over following days", "setting": "[1]; leukemia-derived cell lines except K562, taurolidine 50 μg/ml or greater", "value": "permeability to trypan blue"}, {"measurement": "effect on LPS-induced TNFα secretion", "setting": "TNFα; MM6, intermediate concentrations, particularly 25 μg/ml taurolidine", "value": "markedly stimulating TNFα secretion"}, {"measurement": "inhibition of LPS-induced TNFα secretion", "setting": "TNFα; MM6, taurolidine 75 μg/ml", "value": "maximal inhibition"}]}
